From ChEMBL document CHEMBL2086231, “Novel pleuromutilin derivatives as antibacterial agents: synthesis, biological evaluation and molecular docking studies” (2012)
In brackets after ≈: the same amount, converted by molar mass.

What was measured:
Assay type in all cases: functional
Staphylococcus aureus [1] = assay: Antibacterial activity against methicillin-sensitive Staphylococcus aureus isolate cpu1044 after 18 to 20 hrs by agar dilution method
[2] = tested on: Staphylococcus epidermidis; assay: Antibacterial activity against methicillin-resistant Staphylococcus epidermidis isolate cpu3569 after 18 to 20 hrs by agar dilution method
[3] = tested on: Staphylococcus epidermidis; assay: Antibacterial activity against methicillin-resistant Staphylococcus epidermidis isolate cpu2623 after 18 to 20 hrs by agar dilution method
Staphylococcus aureus [4] = assay: Antibacterial activity against methicillin-sensitive Staphylococcus aureus isolate cpu0587 after 18 to 20 hrs by agar dilution method
[5] = tested on: Staphylococcus epidermidis; assay: Antibacterial activity against methicillin-sensitive Staphylococcus epidermidis isolate cpu2089 after 18 to 20 hrs by agar dilution method
Staphylococcus aureus [6] = assay: Antibacterial activity against methicillin-sensitive Staphylococcus aureus isolate cpu0211 after 18 to 20 hrs by agar dilution method
Staphylococcus aureus [7] = assay: Antibacterial activity against methicillin-resistant Staphylococcus aureus isolate cpu0887 after 18 to 20 hrs by agar dilution method
Staphylococcus aureus [8] = assay: Antibacterial activity against methicillin-resistant Staphylococcus aureus isolate cpu1098 after 18 to 20 hrs by agar dilution method
[9] = tested on: Staphylococcus epidermidis; assay: Antibacterial activity against methicillin-resistant Staphylococcus epidermidis isolate cpu3889 after 18 to 20 hrs by agar dilution method
Staphylococcus aureus [10] = assay: Antibacterial activity against methicillin-resistant Staphylococcus aureus isolate cpu0446 after 18 to 20 hrs by agar dilution method
Staphylococcus aureus [11] = assay: Antibacterial activity against methicillin-resistant Staphylococcus aureus isolate cpu3256 after 18 to 20 hrs by agar dilution method
Staphylococcus aureus [12] = assay: Antibacterial activity against methicillin-sensitive Staphylococcus aureus isolate cpu1344 after 18 to 20 hrs by agar dilution method
[13] = tested on: Staphylococcus epidermidis; assay: Antibacterial activity against methicillin-sensitive Staphylococcus epidermidis isolate cpu1561 after 18 to 20 hrs by agar dilution method
[14] = tested on: Staphylococcus epidermidis; assay: Antibacterial activity against methicillin-resistant Staphylococcus epidermidis isolate cpu2736 after 18 to 20 hrs by agar dilution method
[15] = tested on: Staphylococcus epidermidis; assay: Antibacterial activity against methicillin-sensitive Staphylococcus epidermidis isolate cpu0347 after 18 to 20 hrs by agar dilution method
[16] = tested on: Staphylococcus epidermidis; assay: Antibacterial activity against methicillin-sensitive Staphylococcus epidermidis isolate cpu0315 after 18 to 20 hrs by agar dilution method
Mycoplasma = assay: Antimicrobial activity against Mycoplasma by serial two fold dilution assay

SMILES	MIC (Staphylococcus aureus [1])	MIC [2]	MIC [3]	MIC (Staphylococcus aureus [4])	MIC [5]	MIC (Staphylococcus aureus [6])	MIC (Staphylococcus aureus [7])	MIC (Staphylococcus aureus [8])	MIC [9]	MIC (Staphylococcus aureus [10])	MIC (Staphylococcus aureus [11])	MIC (Staphylococcus aureus [12])	MIC [13]	MIC [14]	MIC [15]	MIC [16]	MIC (Mycoplasma)
C=C[C@]1(C)C[C@@H](OC(=O)CSCc2csc(NC(=O)CNCC(=O)OC)n2)[C@]2(C)[C@H](C)CC[C@]3(CCC(=O)[C@H]32)[C@@H](C)[C@@H]1O	0.5 µg/mL (≈ 0.786 µM)	0.5 µg/mL (≈ 0.786 µM)	0.5 µg/mL (≈ 0.786 µM)	0.25 µg/mL (≈ 0.393 µM)	0.25 µg/mL (≈ 0.393 µM)	0.25 µg/mL (≈ 0.393 µM)	1 µg/mL (≈ 1.57 µM)	0.5 µg/mL (≈ 0.786 µM)	1 µg/mL (≈ 1.57 µM)	1 µg/mL (≈ 1.57 µM)	0.5 µg/mL (≈ 0.786 µM)	0.5 µg/mL (≈ 0.786 µM)	1 µg/mL (≈ 1.57 µM)	0.5 µg/mL (≈ 0.786 µM)	0.5 µg/mL (≈ 0.786 µM)	4 µg/mL (≈ 6.29 µM)	–
C=C[C@]1(C)C[C@@H](OC(=O)CSCc2csc(NC(=O)CN(CCCC)CCCC)n2)[C@]2(C)[C@H](C)CC[C@]3(CCC(=O)[C@H]32)[C@@H](C)[C@@H]1O	4 µg/mL (≈ 5.92 µM)	8 µg/mL (≈ 11.8 µM)	4 µg/mL (≈ 5.92 µM)	4 µg/mL (≈ 5.92 µM)	4 µg/mL (≈ 5.92 µM)	4 µg/mL (≈ 5.92 µM)	32 µg/mL (≈ 47.3 µM)	8 µg/mL (≈ 11.8 µM)	16 µg/mL (≈ 23.7 µM)	8 µg/mL (≈ 11.8 µM)	8 µg/mL (≈ 11.8 µM)	16 µg/mL (≈ 23.7 µM)	16 µg/mL (≈ 23.7 µM)	16 µg/mL (≈ 23.7 µM)	8 µg/mL (≈ 11.8 µM)	8 µg/mL (≈ 11.8 µM)	–
C=C[C@]1(C)C[C@@H](OC(=O)CSCc2csc(NC(=O)CN3CCCC3)n2)[C@]2(C)[C@H](C)CC[C@]3(CCC(=O)[C@H]32)[C@@H](C)[C@@H]1O	0.25 µg/mL (≈ 0.405 µM)	0.5 µg/mL (≈ 0.809 µM)	0.5 µg/mL (≈ 0.809 µM)	0.125 µg/mL (≈ 0.202 µM)	0.125 µg/mL (≈ 0.202 µM)	0.125 µg/mL (≈ 0.202 µM)	0.5 µg/mL (≈ 0.809 µM)	0.25 µg/mL (≈ 0.405 µM)	0.25 µg/mL (≈ 0.405 µM)	0.25 µg/mL (≈ 0.405 µM)	0.25 µg/mL (≈ 0.405 µM)	0.25 µg/mL (≈ 0.405 µM)	0.5 µg/mL (≈ 0.809 µM)	0.5 µg/mL (≈ 0.809 µM)	0.25 µg/mL (≈ 0.405 µM)	2 µg/mL (≈ 3.24 µM)	–
C=C[C@]1(C)C[C@@H](OC(=O)CSCCN(CC)CC)[C@]2(C)[C@H](C)CC[C@]3(CCC(=O)[C@H]32)[C@@H](C)[C@@H]1O [TIAMULIN]	8 µg/mL (≈ 16.2 µM)	0.25 µg/mL (≈ 0.506 µM)	1 µg/mL (≈ 2.03 µM)	8 µg/mL (≈ 16.2 µM)	0.5 µg/mL (≈ 1.01 µM)	2 µg/mL (≈ 4.05 µM)	0.5 µg/mL (≈ 1.01 µM)	2 µg/mL (≈ 4.05 µM)	1 µg/mL (≈ 2.03 µM)	2 µg/mL (≈ 4.05 µM)	2 µg/mL (≈ 4.05 µM)	2 µg/mL (≈ 4.05 µM)	0.0625 µg/mL (≈ 0.127 µM)	0.0625 µg/mL (≈ 0.127 µM)	0.5 µg/mL (≈ 1.01 µM)	0.0625 µg/mL (≈ 0.127 µM)	< 1 µg/mL
C=C[C@]1(C)C[C@@H](OC(=O)CSCc2csc(NC(=O)CN(CC)CC)n2)[C@]2(C)[C@H](C)CC[C@]3(CCC(=O)[C@H]32)[C@@H](C)[C@@H]1O	1 µg/mL (≈ 1.61 µM)	0.25 µg/mL (≈ 0.403 µM)	0.25 µg/mL (≈ 0.403 µM)	8 µg/mL (≈ 12.9 µM)	0.25 µg/mL (≈ 0.403 µM)	1 µg/mL (≈ 1.61 µM)	0.25 µg/mL (≈ 0.403 µM)	0.5 µg/mL (≈ 0.807 µM)	2 µg/mL (≈ 3.23 µM)	0.5 µg/mL (≈ 0.807 µM)	2 µg/mL (≈ 3.23 µM)	0.25 µg/mL (≈ 0.403 µM)	0.25 µg/mL (≈ 0.403 µM)	0.25 µg/mL (≈ 0.403 µM)	0.25 µg/mL (≈ 0.403 µM)	0.25 µg/mL (≈ 0.403 µM)	–
C=C[C@]1(C)C[C@@H](OC(=O)CSCc2csc(NC(=O)CNC3CCCCC3)n2)[C@]2(C)[C@H](C)CC[C@]3(CCC(=O)[C@H]32)[C@@H](C)[C@@H]1O	0.5 µg/mL (≈ 0.774 µM)	0.5 µg/mL (≈ 0.774 µM)	0.25 µg/mL (≈ 0.387 µM)	0.25 µg/mL (≈ 0.387 µM)	0.25 µg/mL (≈ 0.387 µM)	0.25 µg/mL (≈ 0.387 µM)	0.5 µg/mL (≈ 0.774 µM)	0.25 µg/mL (≈ 0.387 µM)	1 µg/mL (≈ 1.55 µM)	0.5 µg/mL (≈ 0.774 µM)	0.5 µg/mL (≈ 0.774 µM)	0.5 µg/mL (≈ 0.774 µM)	8 µg/mL (≈ 12.4 µM)	1 µg/mL (≈ 1.55 µM)	0.5 µg/mL (≈ 0.774 µM)	1 µg/mL (≈ 1.55 µM)	–
